In patent US8481582B2, “1,3-dihydroimidazole-2-thione derivatives as inhibitors of dopamine-beta-hydroxylase” (Bial-Portela & CA, S.A., priority 2007, dated 2013):

Tests used:
[1] = central as well as peripheral effects; cited from earlier work
[2] = tested on: noradrenaline levels in the heart and parietal cortex; experiment: Noradrenaline levels in heart and parietal cortex of mice 9 h after oral dosing; format: in vivo, Male NMRI mice; conditions: oral gavage, 9 h post dose, FIG. 1, compared with prior art DβH inhibitors
Description: Male NMRI mice were obtained from Harlan-Interfauna (Spain) and were kept 10 per cage under controlled environmental conditions (12 h light/dark cycle and room temperature 22±1° C.). Food and tap water were allowed ad libitum and experimentation was performed during daylight hours.
At time=0 h, animals were administered with either test compounds (see FIG. 2) at a given dose or vehicle (water) delivered orally via gavage. At 9 h post dose, the animals were sacrificed by decapitation and heart (left atrium and left ventricle) and brain (parietal cortex) were isolated, weighed and stored in a volume of 0.2 M perchloric acid for 12 h at 4° C. in the dark. Post incubation, the resulting supernatants were collected by centrifuge filtration of incubates ([…]/10 min/˜5000 rpm, 4° C.). Supernatants were stored frozen at −80° C. until analysis. Quantification of dopamine and noradrenaline in supernatants was performed by high pressure liquid chromatography with electrochemical detection.

Compound	crossing of the blood brain barrier (BBB) [1]	effect on noradrenaline levels in the heart and parietal cortex (heart vs brain selectivity) [2]
NCc1c[nH]c(=S)n1[C@H]1CCc2c(F)cc(F)cc2C1 [nepicastat]	cross the blood brain barrier	
Fc1cc(F)c2c(c1)CC(n1c(CCNCc3ccccc3)c[nH]c1=S)CO2 (single isomer, unassigned) [formula X]		marked selectivity for the heart compared to the brain
